Test results: US20090099195A1 (ASTRAZENECA AB, priority 2007, published 2009)

How the values were obtained:
[1] = target: T1, rat P2X2/3 (rat P2X3 co-expressed with rat P2X2) (Rattus norvegicus, UniProt P49653+P49654); test: rat P2X2/3 FLIPR calcium (Fluo-4) antagonist assay; settings: Rat P2X2/3 FLIPR Mean IC50 (nM), HEK-TREX cells, tetracycline-induced rat P2X3 with constitutive rat P2X2; agonist 500 nM α,β-methylene-ATP
T1 sequence (P49654 1-397): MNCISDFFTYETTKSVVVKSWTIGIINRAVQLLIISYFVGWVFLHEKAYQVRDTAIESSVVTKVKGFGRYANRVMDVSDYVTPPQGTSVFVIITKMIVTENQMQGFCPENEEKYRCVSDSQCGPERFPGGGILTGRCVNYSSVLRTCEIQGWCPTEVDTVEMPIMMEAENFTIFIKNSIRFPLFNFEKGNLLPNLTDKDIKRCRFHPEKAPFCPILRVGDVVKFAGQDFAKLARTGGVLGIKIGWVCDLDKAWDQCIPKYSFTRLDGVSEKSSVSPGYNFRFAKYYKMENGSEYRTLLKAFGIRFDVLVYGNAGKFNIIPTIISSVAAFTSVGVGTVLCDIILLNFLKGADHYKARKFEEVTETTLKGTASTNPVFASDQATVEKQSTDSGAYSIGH
T1 sequence (P49653 1-472): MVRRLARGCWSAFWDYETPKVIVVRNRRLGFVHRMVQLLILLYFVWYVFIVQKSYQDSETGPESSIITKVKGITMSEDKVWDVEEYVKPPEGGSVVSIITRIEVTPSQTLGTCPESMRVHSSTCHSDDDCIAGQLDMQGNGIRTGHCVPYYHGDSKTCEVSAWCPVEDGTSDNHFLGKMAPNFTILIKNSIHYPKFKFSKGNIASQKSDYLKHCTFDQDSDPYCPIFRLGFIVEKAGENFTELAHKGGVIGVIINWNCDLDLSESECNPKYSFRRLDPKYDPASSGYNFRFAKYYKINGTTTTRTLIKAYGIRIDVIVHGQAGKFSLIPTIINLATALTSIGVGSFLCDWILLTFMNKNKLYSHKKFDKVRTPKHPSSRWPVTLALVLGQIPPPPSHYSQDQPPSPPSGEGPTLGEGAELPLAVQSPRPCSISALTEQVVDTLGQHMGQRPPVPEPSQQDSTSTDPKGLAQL
Description: (§1) The assay used a calcium indicator dye (Fluo-4) that emits fluorescence, the intensity of which is related to the concentration of calcium that entered the cell when P2X3 was activated and the channel opened. Activation of hP2X3 or rat P2X3 and rat P2X2/3 (from the coexpression of rat P2X3 and rat P2×2) is elicited the by P2X3 agonist α,β methylene-ATP (Sigma M6517), and the resulting fluorescence is measured with a FLIPR II™ instrument (Molecular Devices). Compounds are tested for their ability to inhibit the agonist-induced fluorescent signal.
(§2) For the rat P2X2/3 HEK-TREX cells, induction of the rat P2X3 expression is used to generate the rat P2X2/3 channels in HEK-TREX cells and performed by addition of 1 μg/mL tetracycline (Invitrogen) 24 h prior to compounds testing to the HEK-TREX expressing the rat P2X2 constitutively. On the day of the experiment, the cells and test compounds are prepared as follows. […] After preparing the compounds, the medium is removed from the cell plates by inversion. A loading solution of 30 μL assay buffer containing 4 μM of the calcium indicator dye FLUO-4 AM (Molecular Probes F14202) is added to each well using a Multidrop (Labsystems). […] The incubation is terminated by washing the cells four times in assay buffer using a Skatron Embla (Molecular Devices), and 25 μL of assay buffer was left in each well. Cell plates are then transferred to the FLIPR. Experiments are initiated by measuring a baseline fluorescence reading for 10 seconds, followed by the addition of 12.5 μL of cpds and data sampling for a total 280 seconds. The experiments are terminated by addition of 12.5 μL of a reference agonist (500 nM α,β-methylene-ATP) or buffer, producing a final assay volume of 50 μL followed by data sampling for an additional 280 seconds.
(§3) In P2X3 antagonist experiments (human and rat assays) data are analysed as normalised maximal peak fluorescence monitored following agonist addition and calculated as percent of relative fluorescent counts from control agonist. The dose-response antagonist inhibition curves are analyzed in a 4-parameter sigmoidal fit using a non-linear curve-fitting program (XLfit version 5.0.6, ID Business Solutions Limited, Guildford, UK).

[2] = target: T2, hP2X3 (human Purinergic P2X receptors subtype 3), clone B (Homo sapiens, UniProt P56373); test: hP2X3 FLIPR calcium (Fluo-4) antagonist assay, clone B; settings: Human P2X3 FLIPR Clone B IC50 (nM), RLE cells expressing hP2X3 clone B (NM_002559); agonist 500 nM α,β-methylene-ATP
T2 sequence (P56373 1-397): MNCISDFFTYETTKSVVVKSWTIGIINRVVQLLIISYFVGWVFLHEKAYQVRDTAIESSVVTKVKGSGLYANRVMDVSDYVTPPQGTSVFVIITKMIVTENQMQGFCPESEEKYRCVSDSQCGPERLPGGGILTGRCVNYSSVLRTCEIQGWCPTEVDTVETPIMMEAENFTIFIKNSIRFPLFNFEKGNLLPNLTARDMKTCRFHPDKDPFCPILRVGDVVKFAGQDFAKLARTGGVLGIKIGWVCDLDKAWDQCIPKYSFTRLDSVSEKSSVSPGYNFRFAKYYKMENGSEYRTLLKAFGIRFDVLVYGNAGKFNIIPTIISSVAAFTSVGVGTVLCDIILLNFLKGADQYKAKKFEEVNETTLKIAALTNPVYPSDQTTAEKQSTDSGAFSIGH

[3] = target: T3, hP2X3 (human Purinergic P2X receptors subtype 3), clone A (Homo sapiens, UniProt P56373); test: hP2X3 FLIPR calcium (Fluo-4) antagonist assay, clone A; settings: Human P2X3 FLIPR Clone A Mean IC50 (nM), RLE cells expressing hP2X3 clone A (AB016608); agonist 500 nM α,β-methylene-ATP
T3 sequence (P56373 1-397): T2 sequence (P56373 1-397)
Description: as §1, §2, §3

| SMILES | IC50 [1] [nM] | IC50 [2] [nM] | IC50 [3] [nM] |
| --- | --- | --- | --- |
| CC(C)N1Cc2c(NC(C)(C)Cc3ccc(F)cc3)nc(N3CCN4C(=O)OC[C@H]4C3)nc2C1=O [Example 140, (R)-7-{4-[2-(4-Fluoro-phenyl)-1,1-dimethyl-ethylamino]-6-isopropyl-7-oxo-6,7-dihydro-5H-pyrrolo[3,4-d]pyrimidin-2-yl}-hexahydro-oxazolo[3,4-a]pyrazin-3-one] | 8470 | 1100 | – |
| CC(=O)N1CCN(c2nc(NCc3cc(C)c4ncccc4c3)c3c(n2)C(=O)N(C(C)C)C3)CC1 [Example 247, 2-(4-acetylpiperazin-1-yl)-6-isopropyl-4-((8-methylquinolin-6-yl)methylamino)-5H-pyrrolo[3,4-d]pyrimidin-7(6H)-one] | 9070 | 77 | – |
| CC(=O)N1CCN(c2nc3c(c(N4CCC[C@@H]4C(=O)Oc4ccccc4)n2)CN(C(C)C)C3=O)CC1 [Example 304, phenyl (2R)-1-[4-(4-acetylpiperazin-1-yl)-7-oxo-8-propan-2-yl-3,5,8-triazabicyclo[4.3.0]nona-1,3,5-trien-2-yl]pyrrolidine-2-carboxylate] | 8730 | 71 | – |
| CC(=O)N1CCN(c2nc(NC(C)c3cnn(-c4ccccc4)c3)c3c(n2)C(=O)N(C(C)C)C3)CC1 (stereo not shown) [Example 150, 4-(4-acetylpiperazin-1-yl)-2-[1-(1-phenylpyrazol-4-yl)ethylamino]-8-propan-2-yl-3,5,8-triazabicyclo[4.3.0]nona-1,3,5-trien-7-one] | 237 | 60 | – |
| CC(=O)N1CCN(c2nc3c(c(N4CCCC4c4cnc5ccccc5c4)n2)CN(C(C)C)C3=O)CC1 (single isomer, unassigned) [Example 282, 4-(4-acetylpiperazin-1-yl)-8-propan-2-yl-2-(2-quinolin-3-ylpyrrolidin-1-yl)-3,5,8-triazabicyclo[4.3.0]nona-1,3,5-trien-7-one] | 2530 | 550 | – |
| CC(=O)N1CCN(c2nc(N[C@H](C)c3ccc4c(c3)CCCC4)c3c(n2)C(=O)N(C(C)C)C3)CC1 [Example 166, (R)-2-(4-acetylpiperazin-1-yl)-6-isopropyl-4-(1-(5,6,7,8-tetrahydronaphthalen-2-yl)ethylamino)-5H-pyrrolo[3,4-d]pyrimidin-7(6H)-one] | 1900 | 47 | – |
| CC(=O)N1CCN(c2nc(NCc3nnc(-c4ccccc4)o3)c3c(n2)C(=O)N(C(C)C)C3)CC1 [Example 148, 4-(4-acetylpiperazin-1-yl)-2-[(5-phenyl-1,3,4-oxadiazol-2-yl)methylamino]-8-propan-2-yl-3,5,8-triazabicyclo[4.3.0]nona-1,3,5-trien-7-one] | 6750 | 160 | – |
| CC(=O)N1CCN(c2nc(NCc3ccc(OC(F)(F)F)cc3C)c3c(n2)C(=O)N(C(C)C)C3)CC1 [Example 122, 2-(4-acetylpiperazin-1-yl)-6-isopropyl-4-{[2-methyl-4-(trifluoromethoxy)benzyl]amino}-5,6-dihydro-7H-pyrrolo[3,4-d]pyrimidin-7-one] | 6320 | 130 | – |
| COc1ccc(CC(C)(C)Nc2nc(N3CCN(C(C)=O)CC3)nc3c2CN(C(C)C)C3=O)cc1 [Example 196, 2-(4-acetylpiperazin-1-yl)-6-isopropyl-4-(1-(4-methoxyphenyl)-2-methylpropan-2-ylamino)-5H-pyrrolo[3,4-d]pyrimidin-7(6H)-one] | 2180 | 90 | – |
| CC(=O)N1CCN(c2nc(NC(c3ccccc3)c3ccccc3)c3c(n2)C(=O)N(C(C)C)C3)CC1 [Example 72, 2-(4-Acetyl-piperazin-1-yl)-4-(benzhydryl-amino)-6-isopropyl-5,6-dihydro-pyrrolo[3,4-d]pyrimidin-7-one] | 2110 | – | – |
| CC(=O)N1CCN(c2nc(NC3(c4ccc(Cl)cc4)CC3)c3c(n2)C(=O)N(C(C)C)C3)CC1 [Example 130] | 13300 | 2300 | – |
| CC(=O)N(C)C1CCN(c2nc(NCc3cnc4ccccc4c3)c3c(n2)C(=O)N(C(C)C)C3)C1 (stereo not shown) [Example 208, N-(1-(6-isopropyl-7-oxo-4-(quinolin-3-ylmethylamino)-6,7-dihydro-5H-pyrrolo[3,4-d]pyrimidin-2-yl)pyrrolidin-3-yl)-N-methylacetamide] | 17600 | 680 | – |
| CC(=O)N1CCN(c2nc3c(c(N4CCCC4c4cccc(Cl)c4)n2)CN(C(C)C)C3=O)CC1 (stereo not shown) [Example 132, 2-(4-Acetylpiperazin-1-yl)-4-(2-(3-chlorophenyl)pyrrolidin-1-yl)-6-isopropyl-5H-pyrrolo[3,4-d]pyrimidin-7(6H)-one] | 13300 | 1400 | – |
| CCC(C)N1Cc2c(NCc3cnn(-c4ccccc4)c3)nc(N3CCN(C(C)=O)CC3)nc2C1=O (single isomer, unassigned; (+)) [Example 306, (+)-4-(4-acetylpiperazin-1-yl)-8-butan-2-yl-2-[(1-phenylpyrazol-4-yl)methylamino]-3,5,8-triazabicyclo[4.3.0]nona-1,3,5-trien-7-one] | 3970 | 34 | – |
| CCOc1ccc([C@@H](C)Nc2nc(N3CCN(C(C)=O)CC3)nc3c2CN(C(C)C)C3=O)cc1Cl [Example 159, (R)-2-(4-acetylpiperazin-1-yl)-4-(1-(3-chloro-4-ethoxyphenyl)ethylamino)-6-isopropyl-5H-pyrrolo[3,4-d]pyrimidin-7(6H)-one] | 547 | 37 | – |
| CC(=O)N1CCN(c2nc(NCc3cnc4ccccc4c3)c3c(n2)C(=O)N(C(C)C)C3)CC1C (stereo not shown) [Example 142, 2-(4-Acetyl-3-methyl-piperazin-1-yl)-6-isopropyl-4-[(quinolin-3-ylmethyl)amino]-5,6-dihydro-pyrrolo[3,4-d]pyrimidin-7-one] | 7550 | 57 | – |
| CC(=O)N1CCN(c2nc(NCc3ccc4nc(C)ccc4c3)c3c(n2)C(=O)N(C(C)C)C3)CC1 [Example 242, 2-(4-acetylpiperazin-1-yl)-6-isopropyl-4-((2-methylquinolin-6-yl)methylamino)-5H-pyrrolo[3,4-d]pyrimidin-7(6H)-one] | 10400 | 65 | – |
| CCN(Cc1cnc2ccccc2c1)c1nc(N2CCN(C(C)=O)CC2)nc2c1CN(C(C)C)C2=O [Example 246, 2-(4-acetylpiperazin-1-yl)-4-(ethyl(quinolin-3-ylmethyl)amino)-6-isopropyl-5H-pyrrolo[3,4-d]pyrimidin-7(6H)-one] | 10400 | 68 | – |
| CC(=O)N1CCN(c2nc(N[C@H](C)c3cnc4ccccc4c3)c3c(n2)C(=O)N(C(C)C)C3)CC1 [Example 233, (R)-2-(4-acetylpiperazin-1-yl)-6-isopropyl-4-(1-(quinolin-3-yl)ethylamino)-5H-pyrrolo[3,4-d]pyrimidin-7(6H)-one] | 74.4 | 21 | – |
| CC(=O)N1CCN(c2nc(N[C@H](C)c3ccc(C(F)(F)F)cc3F)c3c(n2)C(=O)N(C(C)C)C3)CC1 [Example 186, (R)-2-(4-acetylpiperazin-1-yl)-4-(1-(2-fluoro-4-(trifluoromethyl)phenyl)ethylamino)-6-isopropyl-5H-pyrrolo[3,4-d]pyrimidin-7(6H)-one] | – | 100 | 138 |
| COc1cc(OC(F)(F)F)ccc1CNc1nc(N2CCN(C(C)=O)CC2)nc2c1CN(C(C)C)C2=O [Example 232, 2-(4-acetylpiperazin-1-yl)-6-isopropyl-4-(2-methoxy-4-(trifluoromethoxy)benzylamino)-5H-pyrrolo[3,4-d]pyrimidin-7(6H)-one] | 7840 | – | – |
